Assay results taken from US20080312283A1, “Use of Hydroxylamine Derivates for Inhibiting Vitrectomy-Induced Cataracts” (Othera Pharmaceuticals, Inc., priority 2005, published 2008).

How the values were obtained:
[1] = tested on: cataract; details: Zigler et al., U.S. Pat. No. 6,001,853; cited from earlier work
[2] = tested on: lens epithelial cells; details: Mitchell et al. 1991; Krishna et al. 1991; cited from earlier work
[3] = Ocular tissue, urine and plasma levels of total radioactivity following a single intravitreal dose; assay type: in vivo, New Zealand White rabbits
Procedure: A randomized, single treatment study, in nine groups of three NZW rabbits per group, was conducted. Animals were assigned to study groups by a computerized randomization program designed to achieve similar body weights per group. Naïve animals received an intra-vitreous injection of the test article at a nominal dose of 2.0 mg*eq [^14C]Tempol-H (1,4-dihydroxy-2,2,6,6-tetramethylpiperidine(2,4,6-^14C3)). A dose of 0.1 mL, containing 2.18 μCi was administered into both eyes. At nine specified time points post dose (1, 30, 60 minutes, 2, 4, 8, 24, 48, and 120 hours), three animals per group were euthanized and terminal samples were collected. The following tissues were harvested from each eye of all animals: aqueous humor, cornea, iris/ciliary body complex, vitreous humor, lens, retina-choroid plexus and optic nerve. Blood was collected from the marginal ear vein of all rabbits into tubes containing K3EDTA; urine was cage-collected daily from three animals up to 120 hour post dosing. Total radioactivity was determined in all samples by liquid scintillation counting.

[4] = tested on: retinal S-antigen-induced experimental autoimmune uveoretinitis (EAU); details: systemic injection, rat model (Zamir et al. 1999); cited from earlier work
[5] = New Zealand White, rabbit, in vivo, 8 h

| SMILES | anti-cataractogenic effect compared with the corresponding nitroxide [1] | protection of lens epithelial cells from oxidative damage [2] | concentration of radioactivity in the aqueous humor [3, 5] | concentration of radioactivity in the cornea [3, 5] | concentration of radioactivity in the iris/ciliary body [3, 5] | concentration of radioactivity in the lens [3, 5] | concentration of radioactivity in the optic nerve [3, 5] | concentration of radioactivity in the retina-choroid plexus [3, 5] | concentration of radioactivity in the vitreous humor [3, 5] | tissues with the highest concentrations of radioactivity ([3]; one minute post dosing, intravitreal) | levels of total radioactivity in sampled ocular tissues, blood and plasma ([3]; single intravitreal dose, all sampled ocular tissues, blood and plasma) | severity of experimental autoimmune uveoretinitis [4] |
| --- | --- | --- | --- | --- | --- | --- | --- | --- | --- | --- | --- | --- |
| CC1(C)CC(O)CC(C)(C)N1O [Tempol-H, 1,4-dihydroxy-2,2,6,6-tetramethylpiperidine] | better anti-cataractogenic composition than the corresponding nitroxide | afforded no such protection | ~30±8 μg eq/g | ~2±0.1 μg eq/g | ~6±0.5 μg eq/g | ~41±6 μg eq/g | ~4±0.5 μg eq/g | ~18±2 μg eq/g | ~25±3 μg eq/g | retina-choroid plexus, vitreous humor and iris-ciliary body complex | Quantifiable levels of total radioactivity were observed in all sampled ocular tissues, blood and plasma | – |
| CC1(C)CC(O)CC(C)(C)N1[O] [tempol, 4-hydroxy-2,2,6,6,-tetramethylpiperidine-1-N-oxyl] | – | – | – | – | – | – | – | – | – | – | – | reduced the severity |
